This is an account of results in patent publication US12173018B2, “Penicillin-binding protein inhibitors” (priority 2018, dated 2024).

Molecules are shown by their SMILES. Like-named read-outs stand apart in the source and are kept apart here.

Test [1] concerns E. coli AG100A. Briefly: microbe, parasite or virus in culture. The format is cell-based. The settings on record: Escherichia coli, read-out: MIC E. coli AG100A. How it is done: (§1) To determine the ability of test compounds to potentiate the inhibition of the growth of bacterial strains, classic cell based broth microdilution minimum inhibitory concentration (MIC) assays were employed. MIC assays are performed according to CLSI methods except where otherwise noted (CLSI, 2011 and CLSI, 2009). The reference type strain E. coli ATCC 25922, the wild-type parent strain E. coli AG100, the hyper-permeable E. coli 901C and E. coli D22 and the E. coli AG100A strain lacking the acrAB efflux pump encoding genes were used to determine the ability of the PBP inhibitors to penetrate the outer membrane of gram-negative bacteria and inhibit bacterial growth. […] The P. aeruginosa PAO1, P. aeruginosa ATCC 27853 and A. baumannii ATCC 19606, along with the hyper-permeable P. aeruginosa ATCC 35151 and an engineered efflux pump-compromised strain of P. aeruginosa (ΔmexAB-oprM) were used to determine the ability of PBP inhibitors to penetrate the outer membrane of P. aeruginosa and A. baumannii and assess antibacterial activity against these important gram-negative organisms.
(§2) Briefly, cryo-preserved bacterial cultures of challenge strains are streaked for isolation on appropriate agar medium, in this case Mueller Hinton II agar. Following incubation to allow growth of the colonies, plates are sealed with parafilm and stored refrigerated for up to two weeks. For preparation of assay inoculum and to ensure low variability, at least 5 colonies are picked from the agar plates with an inoculating loop and aseptically transferred to a culture tube containing 3 mL of Mueller-Hinton Broth (supplemented with divalent cations to required levels based on Manufacturers' certification). The broth culture is grown for 3-5 hours at 37° C. with shaking at 200 rpm. Meanwhile, 2-fold serial dilutions of test compounds are conducted in a 96 well plate with a final volume of 75 μL per well at 2-fold the final desired concentration. After the dilution plates are set up the growing cultures are then diluted in a cuvette containing MH II broth and the optical density is measured at 600 nm. The Inoculum is diluted such that 75 μL of this culture in Mueller-Hinton Broth results in a starting bacterial concentration of 5×10^5 CFU/mL when added to the dilution plates. The plates are incubated for 16-20 hours at 37° C. The MIC values are read visually as the lowest concentration well with no bacterial growth.

The subject of test [2] is K. pneumoniae UMM. The experiment in a line: microbe, parasite or virus in culture. It counts as cell-based. The settings on record: Klebsiella pneumoniae; K. pneumoniae UMM producing SHV-5 and KPC-2; read-out: MIC K. pneumoniae UMM. Here is the method:
as §1, §2

In test [3] the test system is E. coli 901C. The experiment in a line: microbe, parasite or virus in culture. The format is cell-based. As to conditions: Escherichia coli; hyper-permeable E. coli 901C, broth microdilution; read-out: MIC E. coli 901C. How it is done: as §1, §2
For test [4], the system named is E. coli AG100. Briefly: Broth microdilution MIC, E. coli AG100 (wild-type parent). The format is cell-based. The settings on record: Escherichia coli; wild-type parent E. coli AG100, broth microdilution; read-out: MIC E. coli AG100. Here is the method:
To determine the ability of test compounds to potentiate the inhibition of the growth of bacterial strains, classic cell based broth microdilution minimum inhibitory concentration (MIC) assays were employed.
as §2

The subject of test [5] is E. coli ATCC 25922. Briefly: Broth microdilution MIC, E. coli ATCC 25922. It counts as cell-based. The settings on record: Escherichia coli. Here is the method:
as §1, §2

Test [6] deals with K. pneumoniae SI-117. Briefly: microbe, parasite or virus in culture. The format is cell-based. The settings on record: Klebsiella pneumoniae, SI117, read-out: MIC K. pneumoniae SI-117. How it is done: as §1, §2
Test [7] deals with E. coli PBP3 (Escherichia coli (strain K12), UniProt P0AD68). Briefly: E. coli PBP3 Bocillin-FL fluorescence polarization competition binding assay. The source says:
To determine the ability of boronic acid-based test PBP inhibitors to bind Penicillin Binding Proteins (PBPs), Bocillin-FL (fluorescently-labeled penicillin V; ThermoFisher Scientific) was used in a fluorescence polarization (FP) competition binding assay to assess inhibitor binding to PBP2, PBP3 or PBP4 from Escherichia coli. PBPs were cloned and purified as described previously (King, D. T, et al., ACS Infectious Diseases 2015, 1, 175-184). To establish assay conditions for competition binding, an enzyme titration/saturation binding experiment was initially performed. Bocillin-FL was prepared at 0.2 μM in a buffer comprised of 50 mM Hepes (pH 8.0), 300 mM NaCl and 5% (v/v) glycerol. Saturation binding was performed by mixing 40 μl of PBP solutions ranging in concentrations from 0-12 μM with 40 μl of the 0.2 μM Bocillin-FL solution, in individual wells of a black 384-well microplate. FP was measured immediately upon mixing (Excitation, 490 nm; Emission, 520 nm; g-factor, 0.96), using a Cytation3 (BioTek) microplate reader and measured continuously for up to 120 minutes. […] Assays (80 μl final volume) were performed with PBPs at a final concentration of 1.5 μM, Bocillin-FL at 0.1 μM and beta-lactam concentrations that ranged from 0-1000 μM. […] Bocillin-FL was added and the FP immediately measured for 60 minutes (90 minutes for PBP2). The beta-lactam potency was reported as the concentration of beta-lactam required to reduce binding of Bocillin-FL by […] (EC50). […] Binding assays for boronic acid PBP inhibitors were performed in an identical fashion.

Test [8] relates to E. coli D22. The experiment in a line: microbe, parasite or virus in culture. The format is cell-based. The settings on record: Escherichia coli; hyper-permeable E. coli D22, broth microdilution; read-out: MIC E. coli D22. How it is done: as §1, §2
In test [9] the test system is K. pneumoniae 848844. The experiment in a line: microbe, parasite or virus in culture. The settings on record: Klebsiella pneumoniae; K. pneumoniae 848844 producing SHV-11 and KPC-2; read-out: MIC K. pneumoniae 848844. It counts as cell-based, Klebsiella pneumoniae. Here is the method:
as §1, §2

[10] abbreviates: ATCC25922, read-out: MIC E. coli 25922.
[11] abbreviates: ATCC25922, E. coli ATCC 25922, broth microdilution, read-out: MIC E. coli 25922.

Sequence of E. coli PBP3 (P0AD68 whole entry): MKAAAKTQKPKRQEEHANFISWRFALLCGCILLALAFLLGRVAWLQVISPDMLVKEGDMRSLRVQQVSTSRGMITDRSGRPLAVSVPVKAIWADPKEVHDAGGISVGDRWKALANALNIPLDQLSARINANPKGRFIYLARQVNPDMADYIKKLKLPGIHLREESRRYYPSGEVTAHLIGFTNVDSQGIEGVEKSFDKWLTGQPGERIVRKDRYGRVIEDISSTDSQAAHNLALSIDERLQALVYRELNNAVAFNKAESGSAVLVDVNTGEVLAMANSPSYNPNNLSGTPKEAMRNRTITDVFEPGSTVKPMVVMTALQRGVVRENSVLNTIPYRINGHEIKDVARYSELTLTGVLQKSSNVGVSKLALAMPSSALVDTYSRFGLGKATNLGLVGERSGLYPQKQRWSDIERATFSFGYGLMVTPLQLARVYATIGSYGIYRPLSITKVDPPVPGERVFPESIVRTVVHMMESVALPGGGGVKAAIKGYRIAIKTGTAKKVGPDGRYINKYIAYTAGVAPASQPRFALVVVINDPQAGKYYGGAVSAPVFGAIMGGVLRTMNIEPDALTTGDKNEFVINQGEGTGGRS

`CCNC(=O)NC(C(=O)N[C@H]1Cc2cccc(C(=O)O)c2OB1O)c1csc(N)n1` (stereo partly drawn) [Example 6, (3R)-3-(2-(2-aminothiazol-4-yl)-2-(3-ethylureido)acetamido)-2-hydroxy-3,4-dihydro-2H-benzo[e][1,2]oxaborinine-8-carboxylic acid]: the MIC is 8 to 16 µg/mL in test [1]; more than 128 µg/mL in [2]; 8 to 16 µg/mL in [3]; more than 128 µg/mL in [4]; more than 128 µg/mL in test [5] (setting [10]).

`Nc1nc(C(NS(=O)(=O)c2cccnc2)C(=O)N[C@H]2Cc3cccc(C(=O)O)c3OB2O)cs1` (stereo partly drawn) [Example 7, (3R)-3-(2-(2-aminothiazol-4-yl)-2-(pyridine-3-sulfonamido)acetamido)-2-hydroxy-3,4-dihydro-2H-benzo[e][1,2]oxaborinine-8-carboxylic acid]: the MIC in [1] was 32 to 64 µg/mL; in [2], more than 128 µg/mL; in [3], 8 to 16 µg/mL; in test [4], more than 128 µg/mL; in test [5] (setting [10]) it was more than 128 µg/mL.

On to `CCN1CCN(C(=O)N[C@@H](C)C(=O)N[C@H]2Cc3cccc(C(=O)O)c3OB2O)C(=O)C1=O` [Example 8, (R)-3-((S)-2-(4-Ethyl-2,3-dioxopiperazine-1-carboxamido)propanamido)-2-hydroxy-3,4-dihydro-2H-benzo[e][1,2]oxaborinine-8-carboxylic acid], for which the MIC in [1], in test [2], in test [6], in test [3], in test [4] and in test [5] (setting [10]) was more than 128 µg/mL throughout.

On to `CCCN1CCN(C(=O)NC(C(=O)N[C@H]2Cc3cccc(C(=O)O)c3OB2O)c2ccc(O)cn2)C(=O)C1=O` (stereo partly drawn) [Example 134, (3R)-3-(2-(2,3-dioxo-4-propylpiperazine-1-carboxamido)-2-(5-hydroxypyridin-2-yl)acetamido)-2-hydroxy-3,4-dihydro-2H-benzo[e][1,2]oxaborinine-8-carboxylic acid], for which the EC50 in [7] (fluorescence polarization competition binding with Bocillin-FL, read-out: E. coli K12 PBP3 Potency) was less than 30 µM. In addition, the MIC in [1] fell in the range of 8 to 16 µg/mL; in test [2] it was 32 to 64 µg/mL; in test [8] it was 8 to 16 µg/mL; in test [6] it was 32 to 64 µg/mL; in test [3], 2 to 4 µg/mL; in test [4], 32 to 64 µg/mL. For the same compound, the MIC in test [9] and in [5] (setting [11]) was 32 to 64 µg/mL each time.

Take `CCN1CCN(C(=O)NC(C(=O)N[C@H]2Cc3cccc(C(=O)O)c3OB2O)c2ccc(O)c(O)n2)C(=O)C1=O` (stereo partly drawn) [Example 140, (3R)-3-(2-(5,6-dihydroxypyridin-2-yl)-2-(4-ethyl-2,3-dioxopiperazine-1-carboxamido)acetamido)-2-hydroxy-3,4-dihydro-2H-benzo[e][1,2]oxaborinine-8-carboxylic acid]: in [7], the EC50 was in the range of 30 to 500 µM. The MIC fell in the range of 2 to 4 µg/mL in test [1]; 8 to 16 µg/mL in test [2]; 2 to 4 µg/mL in [8]; 32 to 64 µg/mL in test [6]; 0.5 to 1 µg/mL in test [3]; 32 to 64 µg/mL in test [4]. The MIC in test [9] was in the range of 32 to 64 µg/mL; in [5] (setting [11]), 8 to 16 µg/mL.

In the case of `CCN1CCN(C(=O)NC(C(=O)N[C@H]2Cc3ccc(F)c(C(=O)O)c3OB2O)c2cccnc2)C(=O)C1=O` (stereo partly drawn) [Example 141, (3R)-3-(2-(4-ethyl-2,3-dioxopiperazine-1-carboxamido)-2-(pyridin-3-yl)acetamido)-7-fluoro-2-hydroxy-3,4-dihydro-2H-benzo[e][1,2]oxaborinine-8-carboxylic acid], in [7], the EC50 was in the range of 30 to 500 µM. Further, the MIC is 32 to 64 µg/mL in test [1]; 32 to 64 µg/mL in [2]; 8 to 16 µg/mL in test [8]; more than 128 µg/mL in test [6]; 2 to 4 µg/mL in test [3]; more than 128 µg/mL in [4]. For the same compound, the MIC in [9] and in test [5] (setting [11]) was more than 128 µg/mL in each case.

Take `CCN1CCN(C(=O)NC(C(=O)N[C@H]2Cc3cccc(C(=O)O)c3OB2O)c2ccc(O)c(S(N)(=O)=O)c2)C(=O)C1=O` (stereo partly drawn) [Example 143, (3R)-3-(2-(4-ethyl-2,3-dioxopiperazine-1-carboxamido)-2-(4-hydroxy-3-sulfamoylphenyl)acetamido)-2-hydroxy-3,4-dihydro-2H-benzo[e][1,2]oxaborinine-8-carboxylic acid]: the MIC was 2 to 4 µg/mL in test [1]; 32 to 64 µg/mL in test [2]; 2 to 4 µg/mL in test [8]; more than 128 µg/mL in test [6]; less than 0.25 µg/mL in [3]; 32 to 64 µg/mL in test [4]. The MIC was more than 128 µg/mL in [9] and 32 to 64 µg/mL in test [5] (setting [11]).

Compound `CCN1CCN(C(=O)NC(C(=O)N[C@H]2Cc3cccc(C(=O)O)c3OB2O)c2ccc(OC)c(S(N)(=O)=O)c2)C(=O)C1=O` (stereo partly drawn) [Example 144, (3R)-3-(2-(4-ethyl-2,3-dioxopiperazine-1-carboxamido)-2-(4-methoxy-3-sulfamoylphenyl)acetamido)-2-hydroxy-3,4-dihydro-2H-benzo[e][1,2]oxaborinine-8-carboxylic acid] registered an EC50 in [7] of 30 to 500 µM. Further, the MIC was 8 to 16 µg/mL in test [1]; 32 to 64 µg/mL in [2]; 8 to 16 µg/mL in test [8]; more than 128 µg/mL in test [6]; 0.5 to 1 µg/mL in test [3]; 8 to 16 µg/mL in test [4]. Besides, the MIC in test [9] and in test [5] (setting [11]) was more than 128 µg/mL throughout.

In the case of `CCN1CCN(C(=O)NC(C(=O)N[C@H]2Cc3cccc(C(=O)O)c3OB2O)c2ncc(C(=O)NCCO)cc2F)C(=O)C1=O` (stereo partly drawn) [Example 241, (3R)-3-(2-(4-ethyl-2,3-dioxopiperazine-1-carboxamido)-2-(3-fluoro-5-((2-hydroxyethyl)carbamoyl)pyridin-2-yl)acetamido)-2-hydroxy-3,4-dihydro-2H-benzo[e][1,2]oxaborinine-8-carboxylic acid], the MIC in [1] was 8 to 16 µg/mL; in test [2], more than 128 µg/mL; in test [8] it was 8 to 16 µg/mL; in [6] it was more than 128 µg/mL; in [3] it was 0.5 to 1 µg/mL; in test [4], more than 128 µg/mL. Further, the MIC in [9] and in [5] (setting [10]) was more than 128 µg/mL throughout.
